Test systems include MDA-MB-435; OVCAR-4; SN12C; SK-OV-3; ACHN; UACC-257; SF-268; DU-145; MCF7; SNB-19; NCI-H460; Hs-578T; SF-539; M14; HCT-15; UACC-62; K562; NCI-H23; OVCAR-5; SR.
Assay in all cases: NCI-60 cell line screen, 48 h

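Exposure lasted 48 hours, with cells grown in 96-well plates and compounds tested at five concentrations. GI50 = concentration required for 50% inhibition of growth.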 The source made the active and inactive calls. Cut-off read from the data, not from the text of the source: active = GI50 up to about 1.1 µM and inactive = higher.

As to `CC(=O)OC1CC2CCC1(C)C2(C)C` (configuration not stated), the GI50 with MDA-MB-435, in the assay with OVCAR-4, in the assay with SN12C, with SK-OV-3, with ACHN and in the assay with UACC-257 was > 100 µM (inactive) in each case. The GI50 in the assay on SF-268, in the assay on DU-145, with MCF7, in the assay with SNB-19, in the assay with NCI-H460 and with Hs-578T was > 100 µM (inactive) in each case. Also, the GI50 is > 100 µM (inactive) with SF-539; > 100 µM (inactive) in the assay on M14; above 100 µM in the assay on HCT-15; > 100 µM (inactive) in the assay with UACC-62; > 100 µM (inactive) in the assay on K562; > 100 µM (inactive) in the assay on NCI-H23. The GI50 with OVCAR-5 is > 100 µM (inactive).

On to `COC(=O)c1ccccc1C1CN=NC12Cc1cc3c(cc1C2=O)CCC3` (configuration not stated), for which the GI50 with MDA-MB-435 was 44.5 µM (inactive); in the assay with OVCAR-4 it was 44.6 µM (inactive); in the assay on SN12C, 92.9 µM (inactive); with SK-OV-3 it was 86.9 µM (inactive); in the assay with ACHN it was > 100 µM (inactive); with UACC-257, 40.6 µM (inactive). Also, the GI50 in the assay with SF-268 is 62.4 µM (inactive); in the assay with DU-145, > 100 µM (inactive); with MCF7, 49.8 µM (inactive); with SNB-19 it was 57.5 µM (inactive); with NCI-H460, 39.9 µM (inactive); in the assay on Hs-578T it was > 100 µM (inactive). Further, the GI50 with SF-539 was > 100 µM (inactive); in the assay with M14 it was 49.4 µM (inactive); in the assay with HCT-15, above 100 µM; with UACC-62, 69.8 µM (inactive); in the assay on K562, 30.3 µM (inactive); in the assay on NCI-H23, 33.3 µM (inactive). In addition, in the assay on OVCAR-5, the GI50 was > 100 µM (inactive).

Consider `CC(=O)N1CC(=O)N2C(=O)/C(=C/c3ccc(Cl)cc3)N=C12`, for which the GI50 in the assay with MDA-MB-435, in the assay on OVCAR-4, with SN12C, with SK-OV-3, with ACHN and in the assay on UACC-257 was > 100 µM (inactive) each time. In addition, the GI50 is > 100 µM (inactive) in the assay with SF-268; > 100 µM (inactive) in the assay with DU-145; 97.9 µM (inactive) with MCF7; > 100 µM (inactive) with SNB-19; > 100 µM (inactive) in the assay with NCI-H460; 30.9 µM (inactive) in the assay with Hs-578T. Further, the GI50 in the assay with SF-539 is > 100 µM (inactive); in the assay on M14, > 100 µM (inactive); in the assay on HCT-15, above 100 µM; in the assay with UACC-62, > 100 µM (inactive); with K562, 49.1 µM (inactive); with NCI-H23 it was > 100 µM (inactive). Moreover, the GI50 with OVCAR-5 was > 100 µM (inactive).

As for `O=c1[nH]c(=O)n(C2CC(O)C(CO)O2)cc1/N=N/NCCc1ccccc1` (configuration not stated), the GI50 in the assay with MDA-MB-435, with SR, in the assay on OVCAR-4, in the assay with SN12C, with SK-OV-3 and with ACHN was > 100 µM (inactive) throughout. Also, the GI50 in the assay with UACC-257, in the assay on SF-268, in the assay with DU-145, with MCF7, in the assay with SNB-19 and with NCI-H460 was > 100 µM (inactive) each time. The GI50 is > 100 µM (inactive) with Hs-578T; > 100 µM (inactive) in the assay on M14; above 100 µM in the assay on HCT-15; > 100 µM (inactive) in the assay with UACC-62; > 100 µM (inactive) with K562; > 100 µM (inactive) in the assay with NCI-H23. Also, the GI50 in the assay with OVCAR-5 was > 100 µM (inactive).

With `O=c1c2ccccc2nc(N/N=C/c2ccc([N+](=O)[O-])cc2)n1-c1ccccc1`, the GI50 with MDA-MB-435 is 42.4 µM (inactive); in the assay on SR, > 100 µM (inactive); in the assay with OVCAR-4 it was 6.1 µM (inactive); with SN12C, 91 µM (inactive); in the assay with SK-OV-3, 18.7 µM (inactive); in the assay on ACHN, 13.3 µM (inactive). Moreover, the GI50 in the assay on UACC-257 is 15.6 µM (inactive); with SF-268, 12.1 µM (inactive); in the assay with DU-145, 26.9 µM (inactive); in the assay on MCF7 it was 20.9 µM (inactive); with SNB-19, 20.7 µM (inactive); in the assay on NCI-H460, > 100 µM (inactive). For the same compound, the GI50 in the assay with Hs-578T is 6.35 µM (inactive); with M14, 31.7 µM (inactive); in the assay with HCT-15 it was above 100 µM; with UACC-62, 27 µM (inactive); in the assay on K562, 52.1 µM (inactive); in the assay with NCI-H23 it was 61.1 µM (inactive). Further, in the assay on OVCAR-5, the GI50 is > 100 µM (inactive).

Consider `CN(C)c1ccc(/C=C(\NC(=O)c2ccccc2)c2nc3ccccc3c(=O)o2)cc1`, for which the GI50 in the assay with MDA-MB-435, in the assay with OVCAR-4, with SN12C, in the assay on SK-OV-3, in the assay with ACHN and in the assay with UACC-257 was > 100 µM (inactive) in each case. For the same compound, the GI50 was > 100 µM (inactive) in the assay on SF-268; > 100 µM (inactive) with DU-145; 70.5 µM (inactive) with MCF7; > 100 µM (inactive) in the assay with SNB-19; > 100 µM (inactive) in the assay with NCI-H460; > 100 µM (inactive) with Hs-578T. Besides, the GI50 with SF-539 was > 100 µM (inactive); in the assay with M14, > 100 µM (inactive); with HCT-15, above 100 µM; with UACC-62, > 100 µM (inactive); in the assay on K562 it was > 100 µM (inactive); in the assay on NCI-H23, > 100 µM (inactive). Besides, the GI50 in the assay on OVCAR-5 is > 100 µM (inactive).

For the compound `COC1C(O)=C2C(=O)OC(C)(O)/C=C/C=C\C=C/C=C/C(c3ccccc3)NC(=O)/C=C/C=C/C=C/C=C/C2(C)C1O` (configuration not stated), the GI50 in the assay with MDA-MB-435 was 0.0193 µM (active); with OVCAR-4 it was 0.0678 µM (active); in the assay on SN12C, 0.0142 µM (active); with SK-OV-3 it was 0.0253 µM (active); in the assay with ACHN, 0.00488 µM (active); in the assay with UACC-257 it was 0.0363 µM (active). Further, the GI50 in the assay on SF-268 was 0.0171 µM (active); with DU-145, 0.00533 µM (active); in the assay on MCF7, 0.001 µM (active); in the assay on SNB-19, 0.0258 µM (active); in the assay with NCI-H460, < 0.001 µM (active); in the assay on Hs-578T, 0.0419 µM (active). The GI50 was 0.0179 µM (active) in the assay on SF-539; 0.0792 µM (active) in the assay on M14; below 0.001 µM in the assay on HCT-15; 0.114 µM (active) with UACC-62; 0.248 µM (active) in the assay with K562; 0.0158 µM (active) with NCI-H23. Besides, the GI50 in the assay with OVCAR-5 is 0.129 µM (active).

Regarding `O=[N+]([O-])c1cc2c(cc1/C=N/n1c(CO)nc3ccccc31)OCO2`, the GI50 in the assay with MDA-MB-435, in the assay with OVCAR-4, with SN12C, in the assay with SK-OV-3, in the assay with ACHN and in the assay on UACC-257 was > 100 µM (inactive) throughout. Moreover, the GI50 in the assay with SF-268, in the assay on DU-145, with MCF7, in the assay with SNB-19, in the assay on NCI-H460 and in the assay on Hs-578T was > 100 µM (inactive) each time. In addition, the GI50 is > 100 µM (inactive) with SF-539; > 100 µM (inactive) with M14; above 100 µM with HCT-15; > 100 µM (inactive) in the assay with UACC-62; > 100 µM (inactive) with K562; > 100 µM (inactive) with NCI-H23. Further, the GI50 with OVCAR-5 is > 100 µM (inactive).

The values are drawn from ChEMBL document CHEMBL1201862, “PubChem BioAssay data set” (2004).
